In patent US6063782A, “Pyrrolopyridazine derivatives” (Sankyo Company, Limited, priority 1994, dated 2000):

How the values were obtained:
[1] = tested on: Helicobacter pylori strains 9470, 9472 and 9474; assay: Antibacterial activity against Helicobacter pylori; assay type: cell-based; conditions: strains 9470, 9472 and 9474, 37° C., 3 days, slightly aerobic; result given in words only
Experimental: Antibacterial activity against Helicobacter pylori The antibacterial activity of the compounds of the present invention were evaluated by measuring the minimum inhibitory concentration values (MIC) of the present compounds against Helicobacter pylori strains 9470, 9472 and 9474. These strains of Helicobacter pylori were incubated for 4 days on a plate medium. The medium was prepared by dissolving brain heart infusion agar (Product of DIFCO) in a defined amount of distilled water, by sterilization in an autoclave, injecting horse blood (Product of Nihon Seibutsu Zairyo Co.) into each plate for the medium to contain 7% of the blood and by solidifying. Under slightly aerobic conditions, Helicobacter pylori cultivated at 37° C. for 4 days was suspended in a physiological saline solution for its inocular size to be about 10^8 CFU/ml. The suspension was diluted 100 times, and about 10 μl of the diluted suspension was inoculated on a medium for MIC determination. The medium for MIC determination used had the same compounds as those for preculture. […] In a similar way to the preculture, Helicobacter pylori was cultivated at 37° C. for 3 days under slightly aerobic conditions. […] The minimum concentration which gave no bacterial growth was regarded as MIC of the compound of the present invention.

[2] = target: proton.potassium-adenosine triphosphatase (H+.K+-ATPase) (Sus scrofa, UniProt P19156); assay: Proton.potassium-adenosine triphosphatase (H+.K+-ATPase) inhibition test; assay type: biochemical; conditions: microsomal fraction of porcine gastric mucosa, pH=6.85, 37° C.; result given in words only
Experimental: Proton.potassium-adenosine triphosphatase (H^+.K^+ -ATPase) activation test
According to the method reported by Sachs et al. [J. Biol. Chem., 251, 7690 (1976)], a microsomal fraction obtained from homogenized fresh porcine gastric mucosa by density gradient ultracentrifugation was used as the proton.potassium-adenosine triphosphatase preparation, 10 μl of a solution of a test compound in dimethylsulfoxide were added to 0.75 ml of 70 mM tris-HCl buffer solution (magnesium chloride 5 mM, potassium chloride 20 mM and pH=6.85) containing from 30 to 80 μg/ml (in terms of protein concentration) of the enzyme preparation and the mixture was incubated for 45 minutes at 37° C. with shaking at 200 times per minute. The enzyme reaction was initiated by adding 0.25 ml of 8 mM disodium adenosine triphosphate solution. After 20 minutes of the reaction time, the reaction was stopped by adding 1 ml of a 10k trichloroacetic acid-active carbon (100 mg) solution. The reaction solution was centrifuged (4° C., 3000 rpm, 15 minutes) and the inorganic phosphate in the supernatant prepared from adenosine triphosphate by hydrolysis was measured by colorimetry, according to the method of Yoda and Hokin [Biochem. Biophys. Res. Commun., 40, 880 (1970)]. In a similar manner, the amount of inorganic phosphate was measured in a reaction solution in the absence of potassium chloride. From the difference between the phosphate amounts in the presence and absence of potassium chloride, the proton-potassium-adenosine triphosphatase activity was calculated. Based on the activity value in the control and the values in the test compound at the various concentrations tested, the inhibiting rates (%) and then the 50? inhibiting concentrations (IC50) to proton.potassium-adenosine triphosphatase activity were obtained.

gastric acid secretion = assay: Gastric acid secretion activity test using pyloric ligation in rats (Shay rat method); assay type: in vivo; conditions: male SD rats, 20 mg/kg injected into the duodenal region, 4 hours, result given in words only
Experimental: Gastric acid secretion activity test using pyloric ligation in rats (Shay rat method)
Pyloric ligation was conducted based on the method of Shay et al. [Gastroenterology, 5, 43 (1945)]. Male rats of SD strain were fasted for 24 hours; their abdomens were sectioned during anesthesia under ether. The duodenal and pyloric regions were exposed and the latter was ligated. A solution of a test compound (10 mg/ml) prepared by use of 1.5w parts of dimethylacetamide, 68.5% parts of polyethyleneglycol (PEG-400) and 30% parts of physiological saline solution, was injected into the duodenal region for the dose to be 20 mg/kg by use of a 1-ml syringe and an injection needle (26G). After injection of the test compound, the abdominal region was sutured. The animals were allowed to a stand for 4 hours without feeding food and water and then sacrified with carbon dioxide gas. The stomach was excised and gastric juice was gathered. The gastric juice sample was centrifuged (4° C., 2500 rpm, 15 minutes). The amount of the supernatant was measured to be as the gastric secretion. The acidity of the gastric juice was determined by the amount (ml) of 0.01 N sodium hydroxide solution required for titration of 0.1 ml of the supernatant to pH 7.0 by use of-an auto-titrating apparatus. The value of gastric acid secretion was calculated from the value of gastric secretion and the acidity of gastric juice. The inhibiting rate was obtained from the values of gastric acid secretion of the control group and of the administered group.

Sequence of proton.potassium-adenosine triphosphatase (H+.K+-ATPase) (P19156 whole entry): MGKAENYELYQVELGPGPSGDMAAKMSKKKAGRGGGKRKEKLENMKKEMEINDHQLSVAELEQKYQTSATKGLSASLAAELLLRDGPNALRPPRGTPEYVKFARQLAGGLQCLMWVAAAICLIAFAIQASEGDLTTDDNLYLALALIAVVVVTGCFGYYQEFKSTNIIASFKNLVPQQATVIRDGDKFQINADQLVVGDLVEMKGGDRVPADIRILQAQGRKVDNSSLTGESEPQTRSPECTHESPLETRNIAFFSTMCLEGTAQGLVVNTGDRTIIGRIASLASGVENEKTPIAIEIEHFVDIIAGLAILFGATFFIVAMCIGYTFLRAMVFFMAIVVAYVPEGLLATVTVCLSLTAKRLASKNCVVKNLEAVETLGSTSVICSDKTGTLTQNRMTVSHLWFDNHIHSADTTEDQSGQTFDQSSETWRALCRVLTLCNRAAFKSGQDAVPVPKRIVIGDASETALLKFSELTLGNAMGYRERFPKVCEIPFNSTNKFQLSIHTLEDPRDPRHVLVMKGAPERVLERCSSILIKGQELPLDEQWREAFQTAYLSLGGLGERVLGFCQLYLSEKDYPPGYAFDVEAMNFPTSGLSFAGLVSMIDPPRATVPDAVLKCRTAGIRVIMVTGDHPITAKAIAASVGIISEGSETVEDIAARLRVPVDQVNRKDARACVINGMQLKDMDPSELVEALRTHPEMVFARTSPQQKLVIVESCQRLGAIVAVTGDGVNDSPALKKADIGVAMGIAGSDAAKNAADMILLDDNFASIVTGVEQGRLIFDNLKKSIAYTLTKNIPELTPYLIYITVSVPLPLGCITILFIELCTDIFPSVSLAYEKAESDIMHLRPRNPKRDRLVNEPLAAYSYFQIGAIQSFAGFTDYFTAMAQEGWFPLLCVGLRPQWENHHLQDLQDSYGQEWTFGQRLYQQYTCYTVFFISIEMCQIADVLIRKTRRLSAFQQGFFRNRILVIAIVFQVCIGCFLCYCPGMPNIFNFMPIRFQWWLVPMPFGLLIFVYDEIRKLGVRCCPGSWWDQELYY
Sequence of proton.potassium-adenosine triphosphatase (H+.K+-ATPase) (P18434 whole entry partner): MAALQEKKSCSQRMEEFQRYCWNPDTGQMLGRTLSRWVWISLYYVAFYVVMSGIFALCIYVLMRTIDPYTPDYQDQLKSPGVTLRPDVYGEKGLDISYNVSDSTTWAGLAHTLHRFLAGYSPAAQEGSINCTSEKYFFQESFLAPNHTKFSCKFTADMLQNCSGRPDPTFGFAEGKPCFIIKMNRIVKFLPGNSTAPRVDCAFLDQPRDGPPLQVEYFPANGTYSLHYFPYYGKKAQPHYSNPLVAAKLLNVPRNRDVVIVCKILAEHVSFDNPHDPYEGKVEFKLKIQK

Row | Compound | minimum inhibitory concentration (MIC) against Helicobacter pylori [1] | inhibiting concentrations (IC50) to proton.potassium-adenosine triphosphatase activity [2] | inhibiting rate of gastric acid secretion (gastric acid secretion)
1 | CC=CCn1c(C)c(C)c2cnnc(OCc3ccc(F)cc3F)c21 [Example 22, 1-(2-Butenyl)-7-(2,4-difluorobenzyloxy)-2,3-dimethylpyrrolo[2,3-d]pyridazine] | excellent antibacterial activity | excellent activity | excellent activity
2 | C/C=C/n1c(C)c(C)c2cnnc(OCc3ccc(F)cc3)c21 [Example 44, 7-(4-Fluorobenzyloxy)-2,3-dimethyl-1-(1-propenyl)-pyrrolo[2,3-d]pyridazine] | excellent antibacterial activity | excellent activity | excellent activity
3 | CC=CCn1c(C)c(C)c2cnnc(OCc3ccc(Cl)cc3F)c21 [Example 48, 1-(2-Butenyl)-7-(4-chloro-2-fluorobenzyloxy)-2,3-dimethylpyrrolo[2,3-d]pyridazine] | excellent antibacterial activity | excellent activity | excellent activity
